Reference: the NIST ThermoML archive (doi:10.1021/je030102f)
± gives the expanded uncertainty stated by the source.

Experiment: xn = mol fraction of the nth substance listed
Details: 101.33 kPa, Liquid, vibrating tube

CC(C)=O [acetone] + O
mass density [kg/m3]
Details | x1 = 0.0988 | x1 = 0.2193 | x1 = 0.2973 | x1 = 0.3998 | x1 = 0.4986 | x1 = 0.5903 | x1 = 0.6984 | x1 = 0.7934 | x1 = 0.8916 | x1 = 1
283.15 K | 966.507 ± 0.1 | 932.823 ± 0.12 | 913.382 ± 0.13 | 889.08 ± 0.14 | 868.988 ± 0.15 | 853.092 ± 0.14 | 836.647 ± 0.14 | 824.028 ± 0.14 | 812.997 ± 0.14 | 801.669 ± 0.14
288.15 K | 963.567 ± 0.096 | 928.61 ± 0.12 | 908.777 ± 0.13 | 884.145 ± 0.14 | 863.861 ± 0.15 | 847.829 ± 0.14 | 831.252 ± 0.14 | 818.534 ± 0.14 | 807.424 ± 0.14 | 796.037 ± 0.14
293.14 K | – | 924.322 ± 0.12 | 904.105 ± 0.13 | 879.148 ± 0.14 | – | – | – | – | – | –
293.15 K | 960.497 ± 0.097 | – | – | – | 858.674 ± 0.15 | 842.508 ± 0.14 | 825.797 ± 0.14 | 812.982 ± 0.14 | 801.797 ± 0.14 | 790.355 ± 0.14
298.14 K | 957.313 ± 0.098 | 919.968 ± 0.12 | 899.375 ± 0.13 | 874.098 ± 0.14 | – | 837.135 ± 0.14 | 820.292 ± 0.14 | 807.383 ± 0.14 | 796.13 ± 0.14 | –
298.15 K | – | – | – | – | 853.436 ± 0.15 | – | – | – | – | 784.638 ± 0.14
303.14 K | – | 915.544 ± 0.12 | 894.587 ± 0.13 | 868.996 ± 0.14 | 848.142 ± 0.15 | 831.707 ± 0.14 | 814.735 ± 0.14 | 801.735 ± 0.14 | 790.413 ± 0.14 | 778.876 ± 0.14
303.15 K | 954.01 ± 0.099 | – | – | – | – | – | – | – | – | –
308.14 K | – | – | – | – | – | 826.22 ± 0.14 | – | – | – | –
308.15 K | 950.61 ± 0.099 | 911.052 ± 0.12 | 889.735 ± 0.13 | 863.836 ± 0.15 | 842.791 ± 0.15 | – | 809.12 ± 0.14 | 796.028 ± 0.14 | 784.645 ± 0.14 | 773.065 ± 0.14
313.14 K | 947.117 ± 0.1 | 906.488 ± 0.12 | 884.822 ± 0.13 | 858.617 ± 0.15 | – | 820.677 ± 0.14 | 803.446 ± 0.14 | 790.262 ± 0.14 | 778.818 ± 0.14 | 767.205 ± 0.14
313.15 K | – | – | – | – | 837.381 ± 0.15 | – | – | – | – | –
318.14 K | – | 901.855 ± 0.12 | 879.849 ± 0.13 | 853.341 ± 0.15 | 831.924 ± 0.15 | – | – | 784.437 ± 0.14 | 772.936 ± 0.14 | 761.288 ± 0.14
318.15 K | 943.497 ± 0.1 | – | – | – | – | 815.068 ± 0.14 | 797.707 ± 0.14 | – | – | –
323.14 K | – | – | 874.812 ± 0.13 | 848.021 ± 0.14 | 826.399 ± 0.15 | – | 791.9 ± 0.13 | 778.546 ± 0.13 | 766.99 ± 0.14 | 755.314 ± 0.14
323.15 K | 939.767 ± 0.096 | 897.151 ± 0.12 | – | – | – | 809.395 ± 0.14 | – | – | – | –
